Like-named read-outs stand apart in the source and are kept apart here.
Assays:
[1] = system: SW480 colon adenocarcinoma cells; test: 24 h MTT cytotoxicity assay, SW480 cell line; format: cell-based; settings: 24h exposure time
Experimental: One of the main strategies for the treatment of cancer is chemotherapy (De Santis et al. 2014). There are two main factors that made the development of new chemotherapeutic agents crucial: the side effects of the current anticancer drugs used in the clinic and the appearance of tumour cell resistance. A first step facing at tackling this challenging goal is the evaluation of the cytotoxic activity of the new synthesized drugs. In our case, cytotoxicity was evaluated by means of the antiproliferative assay MTT, which is a high-throughput method widely used for the screening of new drugs that is based on the ability of the mitochondrial dehydrogenases to reduce a water soluble yellow dye, namely 3-(4,5-dimethylthiazol-2-yl)-2,5-diphenyl tetrazolium bromide, to form a water insoluble blue formazan (McCauley et al., 2013). […] The best inhibition was obtained with (S)-2 (Table 2, entry 2). Overall the (S) series gave better inhibition results. Table 2 IC50 values obtained from MTT assay with a 24h exposure time
Biological Screening Studies 24 h MTT Cytototoxicity Assay - SW480 cell line
Approximately 5 × 10^3 SW480 colon adenocarcinoma cells were cultured in 200 µl culture medium per well (DMEM medium), supplemented with 10% newborn calf serum and 1% amphotericin-penicillin-streptomycin solution in 96-well plates and incubated at 37 °C under a 5% CO2 atmosphere. The cells were grown for 24h and then exposed to different concentrations of the tested drugs (dissolved in culture medium) for 24h. Hydrogen peroxide was used as a positive control. The cells were washed with the culture medium, incubated with MTT (500 µg/ml) for a further period of 3 hours. At the end of the incubation, the medium was removed, then carefully washed with PBS and 200 µl DMSO were added to each well. Absorbance was read at 570 nm in a microplate reader. Four replicates per dose were included. The IC50 values, that is, the concentrations which produced 50% inhibition of cell viability were calculated from MTT data using the GraphPadPrism Software Inc. (version 6.01) (USA).

DOHH-2 = test: 72 h MTT proliferation assay on lymphoma cell lines (DOHH-2); format: cell-based; settings: DOHH-2 (GCB-DLBCL), 72h exposure time, read-out: GCB-DLBC cell lines IC50, DOHH-2
Experimental: (§1) A set of ten compounds was tested against four lymphoma cell lines belonging to Germinal Center B-cell-like Diffuse Large B-Cell lymphoma, GCB-DLBCL and Activated B-Cell-like Diffuse Large B-Cell lymphoma, ABC-DLBCL (Table 3). Compounds were tested in triplicates as single agents, for 72 hours by using a large range of concentrations. […] In particular, ISATIN-BENZYL is the most promising one reaching IC50s of 1 and 5 µM in the OCI-LY-10 and SU-DHL-2 cell lines (Table 3). Table 3. IC50 values obtained from MTT assay with a 72h exposure time on lymphoma cell lines.
(§2) 72 h MTT assay on lymphoma cell lines.
(§3) Compounds were dissolved in dimethyl sulphoxide (DMSO) to obtain a stock concentration of 20 mM.
(§4) Cell lines. The panel of lymphoma cell lines comprised models derived from diffuse large B-cell lymphoma (n. 4) cell lines derived from DLBCL of the germinal center B-cell type (GCB-DLBCL), such as VAL and DOHH-2, and derived of the activated B-cell type (ABC-DLBCL) such as OCI-LY-10 and SU-DHL-2.
(§5) Cells were seeded in 96-well plates (non-tissue culture treated) at a density of 10,000 cells for all cell lines. Each compound was dissolved in dimethyl sulphoxide (DMSO). For treatment of cells, compounds were serially diluted in the appropriate tissue culture medium, at a range of 20 µM - 19 nM following a 1:2 dilution factor and added to cells (in three replicates). Cells were incubated for 72 hours at 37 °C, 5% CO2. DMSO alone was added to negative control (untreated) cells. Wells containing medium only were included on each plate and served as blanks for absorbance readings. MTT (Sigma-Aldrich Chemie GmbH, Buchs, Switzerland) was prepared as a 5 mg/ml stock in PBS and filter-sterilized. MTT solution (22µL) was added to each well and tissue culture plates were incubated at 37°C for 4 hours. Cells were then lysed with 25% SDS lysis buffer and absorbance was read at 570 nm using an AD340 plate reader (Beckman Coulter International SA, Switzerland). Absorbance values were expressed in percentage of proliferating cells in comparison with control cells (control corresponds to 100%).

VAL = test: 72 h MTT proliferation assay on lymphoma cell lines (VAL); format: cell-based; settings: VAL (GCB-DLBCL), 72h exposure time, read-out: GCB-DLBC cell lines IC50, VAL
Experimental: as §1, §2, §3, §4, §5

OCI-LY-10 = test: 72 h MTT proliferation assay on lymphoma cell lines (OCI-LY-10); format: cell-based; settings: 72h exposure time, read-out: ABC-DLBC cell lines IC50, OCI-LY-10
Experimental: as §1, §2, §3, §4, §5

SU-DHL-2 = test: 72 h MTT proliferation assay on lymphoma cell lines (SU-DHL-2); format: cell-based; settings: SU-DHL-2 (ABC-DLBCL), 72h exposure time, read-out: ABC-DLBC cell lines IC50, SU-DHL-2
Experimental: as §1, §2, §3, §4, §5

[2] = system: SW480 colon adenocarcinoma cells; settings: bench-mark value from Xu et al. 2003, SW480; cited from earlier work
[3] = Homo sapiens, OCI-Ly10, OCI-LY-10 (ABC-DLBCL)

SMILES | IC50 (DOHH-2; Homo sapiens) [µM] | IC50 (VAL) [µM] | IC50 (OCI-LY-10; [3]) [µM] | IC50 [1] [µM] | IC50 ([1]; Homo sapiens, SW480, 24 h) [µM] | also measured
CC(C)[C@H]1CC[C@H](C)C[C@H]1n1cc(CN2C(=O)C(=O)c3ccccc32)nn1 [ISATIN-BENZYL, 1-((1-((1R,2R,5S)-2-Isopropyl-5-methylcyclohexyl)-1H-1,2,3-triazol-4-yl)methyl)indoline-2,3-dione] | > 20 | > 20 | 1 |  |  | IC50 ([1]; Homo sapiens): 84.4 µM; IC50 (SU-DHL-2; Homo sapiens): 5 µM
COc1cccc2c1C(=O)c1c(O)c3c(c(O)c1C2=O)C[C@@](O)(C(=O)CO)C[C@@H]3O[C@H]1C[C@H](N)[C@H](O)[C@H](C)O1 [Dox, doxorubicin] |  |  |  |  |  | IC50 [2]: 65.3 µM
O=C1N(Cc2cn(Cc3ccccc3)nn2)c2ccccc2C1(O)c1ccsc1 [(S) -5, 1-((1-Benzyl-1H-1,2,3-triazol-4-yl)methyl)-3-hydroxy-3-(thiophen-3-yl)indolin-2-one] |  |  |  | 33 |  | 
O=C1N(Cc2cn(Cc3ccccc3)nn2)c2ccccc2C1(O)c1ccccc1 [(R) -1, 1-((1-Benzyl-1H-1,2,3-triazol-4-yl)methyl)-3-hydroxy-3-phenylindolin-2-one] | > 20 | > 20 | > 20 |  | 82.6 | IC50 (SU-DHL-2; Homo sapiens, SU-DHL-2, 72 h): > 20 µM
O=C1N(Cc2cn(Cc3ccccc3)nn2)c2ccccc2C1(O)c1cccc(O)c1 [(R) -6, 1-((1-Benzyl-1H-1,2,3-triazol-4-yl)methyl)-3-hydroxy-3-(3-hydroxyphenyl)indolin-2-one] |  |  |  | 210 |  | 
COc1ccc(C2(O)C(=O)N(Cc3cn(Cc4ccccc4)nn3)c3ccccc32)cc1 [(S) -4, 1-((1-Benzyl-1H-1,2,3-triazol-4-yl)methyl)-3-hydroxy-3-(4-methoxyphenyl)indolin-2-one] |  |  |  | 48.9 |  | 
O=C1N(Cc2cn(Cc3ccccc3)nn2)c2ccccc2C1(O)c1ccc2ccccc2c1 [(S) -2, 1-((1-Benzyl-1H-1,2,3-triazol-4-yl)methyl)-3-hydroxy-3-(naphthalen-2-yl)indolin-2-one] |  | > 20 |  | 12.8 |  | IC50 (DOHH-2): > 20 µM; IC50 (OCI-LY-10; OCI-LY-10 (ABC-DLBCL)): > 20 µM; IC50 (SU-DHL-2): 19 µM
O=C1N(Cc2cn(Cc3ccccc3)nn2)c2ccccc2C1(O)c1cccc(O)c1 [(S) -6, 1-((1-Benzyl-1H-1,2,3-triazol-4-yl)methyl)-3-hydroxy-3-(3-hydroxyphenyl)indolin-2-one] |  |  |  | 52.8 |  | 
Cc1ccc(C2(O)C(=O)N(Cc3cn(Cc4ccccc4)nn3)c3ccccc32)cc1 [(S) -8, 1-((1-Benzyl-1H-1,2,3-triazol-4-yl)methyl)-3-hydroxy-3-p-tolylindolin-2-one] |  |  |  |  | > 200 | 
O=C1N(Cc2cn(Cc3ccccc3)nn2)c2ccc(Br)cc2C1(O)c1ccccc1 [(S) -7, 1-((1-Benzyl-1H-1,2,3-triazol-4-yl)methyl)-5-bromo-3-hydroxy-3-phenylindolin-2-one] | 19 | > 20 | > 20 | 34.1 |  | IC50 (SU-DHL-2; Homo sapiens, SU-DHL-2, 72 h): 19 µM
CCCCn1cc(CN2C(=O)C(O)(c3ccccc3)c3ccccc32)nn1 [(S) -9, 1-((1-Butyl-1H-1,2,3-triazol-4-yl)methyl)-3-hydroxy-3-phenylindolin-2-one] |  |  |  |  | > 200 | 
O=C1N(Cc2cn(Cc3ccccc3)nn2)c2ccccc2C1(O)c1ccc(F)cc1 [(R) -3, 1-((1-Benzyl-1H-1,2,3-triazol-4-yl)methyl)-3-(4-fluorophenyl)-3-hydroxyindolin-2-one] | > 20 | > 20 | > 20 |  | 49.1 | IC50 (SU-DHL-2; Homo sapiens, SU-DHL-2, 72 h): > 20 µM
O=C1N(Cc2cn(Cc3ccccc3)nn2)c2ccccc2C1(O)c1ccsc1 [(R) -5, 1-((1-Benzyl-1H-1,2,3-triazol-4-yl)methyl)-3-hydroxy-3-(thiophen-3-yl)indolin-2-one] | > 20 | > 20 | > 20 | 86.4 |  | IC50 (SU-DHL-2; Homo sapiens, SU-DHL-2, 72 h): > 20 µM
COc1ccc(C2(O)C(=O)N(Cc3cn(Cc4ccccc4)nn3)c3ccccc32)cc1 [(R) -4, 1-((1-Benzyl-1H-1,2,3-triazol-4-yl)methyl)-3-hydroxy-3-(4-methoxyphenyl)indolin-2-one] |  |  |  |  | 76.4 | 
O=C1N(Cc2cn(Cc3ccccc3)nn2)c2ccc(Br)cc2C1(O)c1ccccc1 [(R) -7, 1-((1-Benzyl-1H-1,2,3-triazol-4-yl)methyl)-5-bromo-3-hydroxy-3-phenylindolin-2-one] |  |  |  |  | 42.5 | 
O=C1N(Cc2cn(Cc3ccccc3)nn2)c2ccccc2C1(O)c1ccccc1 [(S) -1, 1-((1-Benzyl-1H-1,2,3-triazol-4-yl)methyl)-3-hydroxy-3-phenylindolin-2-one] |  |  |  | 63 |  | 
O=C1N(Cc2cn(Cc3ccccc3)nn2)c2ccccc2C1(O)c1ccc(F)cc1 [(S) -3, 1-((1-Benzyl-1H-1,2,3-triazol-4-yl)methyl)-3-(4-fluorophenyl)-3-hydroxyindolin-2-one] |  | > 20 |  | 25.9 |  | IC50 (DOHH-2): > 20 µM; IC50 (OCI-LY-10; OCI-LY-10 (ABC-DLBCL)): > 20 µM; IC50 (SU-DHL-2): > 20 µM
O=C1N(Cc2cn(Cc3ccccc3)nn2)c2ccccc2C1(O)c1ccc2ccccc2c1 [(R) -2, 1-((1-Benzyl-1H-1,2,3-triazol-4-yl)methyl)-3-hydroxy-3-(naphthalen-2-yl)indolin-2-one] | > 20 | > 20 | > 20 |  | 18.6 | IC50 (SU-DHL-2; Homo sapiens, SU-DHL-2, 72 h): > 20 µM
O=C1C(=O)N(Cc2cn(Cc3ccccc3)nn2)c2ccccc21 [ISATIN-MENTHOL, 1-((1-Benzyl-1H-1,2,3-triazol-4-yl)methyl)indoline-2,3-dione] | > 20 | > 20 | 7 |  |  | IC50 ([1]; Homo sapiens): 13.7 µM; IC50 (SU-DHL-2; Homo sapiens): 15 µM

Reference: patent EP3400938B1, “NOVEL N-(1,2,3-TRIAZOLMETHYL)ISATIN AND N-(1,2,3-TRIAZOLMETHYL)-3-HYDROXY-3-ARYLOXINDOLES WITH CYTOTOXIC AND ANTI-TUMOR ACTIVITY” (Universidade de Évora, priority 2017, dated 2018)
